Measurements from US20260232666A1, “COMPOSITIONS AND METHODS FOR INHIBITION OF RAS” (TheRas, Inc., priority 2023, published 2026).

How the values were obtained:
[1] = target: T1, GDP-loaded KRAS4b (amino acids 1-169) G12C/C118S protein (Homo sapiens, UniProt P01116, C118S/G12C); assay: Covalent cysteine 12 modification by MALDI-TOF MS, GDP-loaded KRAS G12C; type: binding; conditions: 15 minutes reaction time point
T1 construct: KRAS4b (amino acids 1-169) G12C/C118S protein; made in house
Outline: (§1)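 Covalent labelling is scored at 15 min by MALDI-TOF mass spectrometry, using 1 μM protein with compound at a 1:2.5 protein-to-compound ratio at room temperature.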

[2] = target: T2, GTP-loaded KRAS4b (amino acids 1-169) G12C/C118S protein (Homo sapiens, UniProt P01116, C118S/G12C); assay: Covalent cysteine 12 modification by MALDI-TOF MS, GTP-loaded KRAS G12C; type: binding; conditions: 15 minutes reaction time point
T2 construct: KRAS4b (amino acids 1-169) G12C/C118S protein; made in house
Outline: as §1

[3] = target: T3, Avi-KRAS G12C (1-169) GppNHp/RAF1 RBD-3×FLAG (52-151) (Homo sapiens, UniProt P01116, G12C); assay: Raf1 RBD-KRAS G12C-GppNHp disruption assay (protein:protein interaction HTRF); type: biochemical
T3 construct: Avi-KRAS G12C (1-169) GppNHp; Avi (N)
Procedure: Biological Example 2: Disrupting KRAS G12C-Effector Binding (Protein: Protein Interaction HTRF Assay)
A protein: protein interaction (PPI) Homogeneous Time Resolved Fluorescence (HTRF) assay was used to determine the effectiveness of compounds of the present disclosure in disrupting KRAS G12C protein and effector (RAF1 Ras Binding Domain (RBD)) binding.
The HTRF assay used the following reagents and proteins: 50 nM Avi-KRAS G12C (1-169) GppNHp/RAF1 RBD-3×FLAG (52-151); 35 nM Avi-PI3K RBD-3×FLAG; Assay Buffer: 50 mM Tris pH 7.5, 100 mM NaCl, 5 mM MgCl2, 0.1% BSA, 0.01% Tween 20, 10% DMSO; Bead Buffer: 50 mM Tris pH 7.5, 0.01% Tween 20; Assay volume: 20 μL (384 well plate-low volume format); and Compound titration: 30-0.02 μM, 3× dilution series.
The HTRF assay employed the following protocol:
Compounds were dispensed in assay plate (384-well, Grenier Bio-One #784075) using Echo (model 555) with dose response settings: 200 nL final volume, titration from 100 μM as a 10-point dilution series. KRAS proteins were prepared in assay buffer, and dispensed on plates, 5 μL per well, then incubated for 1 h at room temperature, with 700 rpm shaking. RAF1 RBD were prepared in assay buffer, dispensed onto plates, 5 μL per well, and then incubated for 1 h at room temperature, with 700 rpm shaking. Reagent mix was then prepared and dispensed on plates, 10 μL per well, and then incubated for 1 h at room temperature, with 700 rpm shaking.
Plates were analyzed on an Envision plate reader using the following setting: Excitation 320 nm, Bandwidth 75 nm; Emission 615 nm, Bandwidth 85 nm; Gain 100%; Flashes 100; Lag 60 μs. Data was reported as percentage of activity, with DMSO as 100%. Data was plotted and analyzed using Prism 8.
The percent of modification of GppNHp, GTP, or GDP loaded KRAS G12C by MALDI-TOF MS, biochemical Raf1 RBD-KRAS G12C-GppNHp disruption assay IC50, and pERK inhibition IC50 of selected compounds described herein are shown in Table 4. For percent of modification at 15 minutes (MALDI-TOF MS) of GppNHp, GTP, or GDP loaded KRAS G12C: A: percent of modification ≥70%; B: 50≤percent of modification <70%; C: 10%≤percent of modification <50%; D: percent of modification <10%. […] For pERK inhibition in H358 cell assay: A: IC50≤0.1 μM; B: 0.1 μM<IC50≤1 μM; C: IC50>1 μM. Blanks in the table represent that compound was not tested in the indicated assay.

For `C=CC(=O)N1C[C@H](C)N(c2nc(OC[C@@]34CCCN3C[C@H](F)C4)nc3c(F)c(-c4ccc(F)c5sc(N)c(C#N)c45)c(Cl)cc23)C[C@H]1C` (atropisomer, axis not shown) [Compound 102], the “GDP-KRAS G12C percent of modification” value [1] was “A (percent of modification ≥70%)”, the “GTP-KRAS G12C percent of modification” value [2] was “A (percent of modification ≥70%)” and the IC50 [3] was less than 500 nM.
In the case of `C=CC(=O)N1C[C@H](C)N(c2nc(OC[C@@]34CCCN3C[C@H](F)C4)nc3c(F)c(-c4ccc(F)c5sc(N)c(C#N)c45)c(Cl)cc23)C[C@H]1C` (atropisomer, axis not shown) [Compound 103], the “GDP-KRAS G12C percent of modification” value [1] is reported as “D (percent of modification <10%)”, the “GTP-KRAS G12C percent of modification” value [2] is reported as “D (percent of modification <10%)” and the IC50 [3] is reported as 5000 to 20000 nM.
With `C=CC(=O)N1CC[C@@H](N(C)c2nc(OC[C@@H]3CC4(CC4)CN3C)nc3c(F)c(-c4ccc(F)c5sc(N)c(C#N)c45)c(C(F)(F)F)cc23)[C@@H]1C` (atropisomer, axis not shown) [Compound 111] the “GDP-KRAS G12C percent of modification” value [1] was “A (percent of modification ≥70%)”, the “GTP-KRAS G12C percent of modification” value [2] was “A (percent of modification ≥70%)” and the IC50 [3] was less than 500 nM.
With `C=CC(=O)N1CC[C@@H](N(CC)c2nc(OC[C@@H]3C[C@@H](F)CN3C)nc3c(F)c(-c4ccc(F)c5sc(N)c(C#N)c45)c(C(F)(F)F)cc23)[C@H]1C` (atropisomer, axis not shown) [Compound 113] the “GDP-KRAS G12C percent of modification” value [1] was “A (percent of modification ≥70%)”, the “GTP-KRAS G12C percent of modification” value [2] was “A (percent of modification ≥70%)” and the IC50 [3] was less than 500 nM.
In the case of `C=CC(=O)N1CC[C@@H](N(CC)c2nc(OC[C@@H]3C[C@@H](F)CN3C)nc3c(F)c(-c4ccc(F)c5sc(N)c(C#N)c45)c(C(F)(F)F)cc23)[C@H]1C` (atropisomer, axis not shown) [Compound 114], the “GDP-KRAS G12C percent of modification” value [1] is reported as “D (percent of modification <10%)”, the “GTP-KRAS G12C percent of modification” value [2] is reported as “D (percent of modification <10%)” and the IC50 [3] is reported as 5000 to 20000 nM.
In the case of `C=CC(=O)N1CC[C@@H](N(C)c2nc(OC[C@@H]3CCCN3C)nc3c(F)c(-c4ccc(F)c5sc(N)c(C#N)c45)c(Cl)cc23)[C@H]1C` (atropisomer, axis not shown) [Compound 118], the “GDP-KRAS G12C percent of modification” value [1] is reported as “A (percent of modification ≥70%)”, the “GTP-KRAS G12C percent of modification” value [2] is reported as “A (percent of modification ≥70%)” and the IC50 [3] is reported as less than 500 nM.
With `C=CC(=O)N1CC[C@@H](N(C)c2nc(OC[C@@H]3CCCN3C)nc3c(F)c(-c4ccc(F)c5sc(N)c(C#N)c45)c(Cl)cc23)[C@H]1C` (atropisomer, axis not shown) [Compound 119] the “GDP-KRAS G12C percent of modification” value [1] was “D (percent of modification <10%)”, the “GTP-KRAS G12C percent of modification” value [2] was “D (percent of modification <10%)” and the IC50 [3] was 5000 to 20000 nM.
In the case of `C=CC(=O)N1CC[C@@H](N(CC)c2nc(OC[C@@H]3CC4(CC4)CN3C)nc3c(F)c(-c4ccc(F)c5sc(N)c(C#N)c45)c(Cl)cc23)[C@H]1C` (atropisomer, axis not shown) [Compound 120], the “GDP-KRAS G12C percent of modification” value [1] is reported as “A (percent of modification ≥70%)”, the “GTP-KRAS G12C percent of modification” value [2] is reported as “A (percent of modification ≥70%)” and the IC50 [3] is reported as less than 500 nM.
`C=CC(=O)N1CC[C@@H](N(CC)c2nc(OC[C@@H]3CC4(CC4)CN3C)nc3c(F)c(-c4ccc(F)c5sc(N)c(C#N)c45)c(Cl)cc23)[C@H]1C` (atropisomer, axis not shown) [Compound 121] was tested, and the “GDP-KRAS G12C percent of modification” value [1] was “D (percent of modification <10%)”, the “GTP-KRAS G12C percent of modification” value [2] was “D (percent of modification <10%)” and the IC50 [3] was 5000 to 20000 nM.
In the case of `C=CC(=O)N1CC[C@@H](N(C)c2nc(OC[C@@H]3CCCN3C)nc3c(F)c(-c4ccc(F)c5sc(N)c(C#N)c45)c(C(F)(F)F)cc23)[C@H]1C` (atropisomer, axis not shown) [Compound 131], the “GDP-KRAS G12C percent of modification” value [1] is reported as “A (percent of modification ≥70%)”, the “GTP-KRAS G12C percent of modification” value [2] is reported as “A (percent of modification ≥70%)” and the IC50 [3] is reported as less than 500 nM.
For `C=CC(=O)N1CC[C@@H](N(C)c2nc(OC[C@@H]3CCCN3C)nc3c(F)c(-c4ccc(F)c5sc(N)c(C#N)c45)c(C(F)(F)F)cc23)[C@H]1C` (atropisomer, axis not shown) [Compound 132], the “GDP-KRAS G12C percent of modification” value [1] was “D (percent of modification <10%)”, the “GTP-KRAS G12C percent of modification” value [2] was “D (percent of modification <10%)” and the IC50 [3] was 5000 to 20000 nM.
For `C=CC(=O)N1CC[C@H](N(CC)c2nc(OC[C@@]34CCCN3C[C@H](F)C4)nc3c(F)c(-c4ccc(F)c5sc(N)c(C#N)c45)c(C(F)(F)F)cc23)C1` (atropisomer, axis not shown) [Compound 171], the “GDP-KRAS G12C percent of modification” value [1] was “C (10%≤percent of modification <50%)”, the “GTP-KRAS G12C percent of modification” value [2] was “B (50≤percent of modification <70%)” and the IC50 [3] was less than 500 nM.
With `C=CC(=O)N1C[C@H](N(C)c2nc(OC[C@@]34CCCN3C[C@H](F)C4)nc3c(F)c(-c4ccc(F)c5sc(N)c(C#N)c45)c(C(F)(F)F)cc23)C[C@H]1C` (atropisomer, axis not shown) [Compound 176] the “GDP-KRAS G12C percent of modification” value [1] was “A (percent of modification ≥70%)”, the “GTP-KRAS G12C percent of modification” value [2] was “A (percent of modification ≥70%)” and the IC50 [3] was less than 500 nM.
With `C=CC(=O)N1C[C@H](N(C)c2nc(OC[C@@]34CCCN3C[C@H](F)C4)nc3c(F)c(-c4ccc(F)c5sc(N)c(C#N)c45)c(C(F)(F)F)cc23)C[C@H]1C` (atropisomer, axis not shown) [Compound 177] the “GDP-KRAS G12C percent of modification” value [1] was “D (percent of modification <10%)”, the “GTP-KRAS G12C percent of modification” value [2] was “D (percent of modification <10%)” and the IC50 [3] was 500 to 5000 nM.
For `C=CC(=O)N1CC[C@@H](N(C)c2nc(OC[C@@H]3CCCN3CC)nc3c(F)c(-c4ccc(F)c5sc(N)c(C#N)c45)c(C(F)(F)F)cc23)[C@@H]1C` [Compound 30], the “GTP-KRAS G12C percent of modification” value [2] was “B (50≤percent of modification <70%)” and the IC50 [3] was less than 500 nM.
In the case of `C=CC(=O)N1CC[C@@H](N(C)c2nc(OC[C@@H]3C[C@@H](F)CN3C)nc3c(F)c(-c4ccc(F)c5sc(N)c(C#N)c45)c(C(F)(F)F)cc23)[C@@H]1C` [Compound 32], the “GTP-KRAS G12C percent of modification” value [2] is reported as “C (10%≤percent of modification <50%)” and the IC50 [3] is reported as less than 500 nM.
For `C=CC(=O)N1C[C@@H](C)N(c2nc(OC[C@@]34CCCN3C[C@H](F)C4)nc3c(F)c(-c4ccc(F)c5sc(N)c(C#N)c45)c(C(F)(F)F)cc23)C[C@@H]1C` [Compound 124], the “GDP-KRAS G12C percent of modification” value [1] was “B (50≤percent of modification <70%)” and the IC50 [3] was less than 500 nM.
With `C=CC(=O)N1CC[C@@H](N(C)c2nc(OC[C@@]34CCCN3C[C@H](OC)C4)nc3c(F)c(-c4ccc(F)c5sc(N)c(C#N)c45)c(C(F)(F)F)cc23)[C@H]1C` [Compound 151] the “GTP-KRAS G12C percent of modification” value [2] was “A (percent of modification ≥70%)” and the IC50 [3] was less than 500 nM.
